Legend:
Assay in all cases: relative viability (nuclei count vs DMSO), 5 days (fraction); higher = more cells survive
[1] = compound: CC1=CC=C(C=C1)C(=O)CN2C3=C(CCCC3)SC2=N [Pifithrin_alpha] + CS(=O)(=O)CCNCc1ccc(-c2ccc3ncnc(Nc4ccc(OCc5cccc(F)c5)c(Cl)c4)c3c2)o1 [Lapatinib] (partner 2 µM)
Method in brief: (§1)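 Lung cancer cell lines, seeded in 1536-well plates, were treated the following day by pin tool with a single drug or with five library-drug doses (not always all listed) in √10 steps on top of a fixed anchor-drug dose. Cells were fixed and nuclei stained in one step after 5 days, and nuclei were counted. Relative viability is the nuclei count for treated wells divided by that for vehicle wells, reported as medians of duplicate plates.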

[2] = compound: CC1=CC=C(C=C1)C(=O)CN2C3=C(CCCC3)SC2=N [Pifithrin_alpha] + CC1(C)CCC(c2ccc(Cl)cc2)=C(CN2CCN(c3ccc(C(=O)NS(=O)(=O)c4ccc(N[C@H](CCN5CCOCC5)CSc5ccccc5)c(S(=O)(=O)C(F)(F)F)c4)cc3)CC2)C1 [Navitoclax] (partner 0.5 µM)
Method in brief: as §1

Axitinib + Vorinostat = compound: CNC(=O)c1ccccc1Sc1ccc2c(/C=C/c3ccccn3)n[nH]c2c1 [Axitinib] + O=C(CCCCCCC(=O)Nc1ccccc1)NO [Vorinostat] (partner 1 µM)
Method in brief: as §1

Bemcentinib + Dasatinib = compound: Nc1nc(Nc2ccc3c(c2)CC[C@@H](N2CCCC2)CC3)nn1-c1cc2c(nn1)-c1ccccc1CCC2 [Bemcentinib] + Cc1nc(Nc2ncc(C(=O)Nc3c(C)cccc3Cl)s2)cc(N2CCN(CCO)CC2)n1 [Dasatinib] (partner 0.075 µM)
Method in brief: as §1

Cell Line	relative viability ([1]; first compound 1 µM)	relative viability ([1]; first compound 3.162 µM)	relative viability ([1]; first compound 10 µM)	relative viability ([1]; first compound 100 µM)	relative viability ([2]; first compound 1 µM)	relative viability ([2]; first compound 3.162 µM)	relative viability ([2]; first compound 10 µM)	relative viability ([2]; first compound 100 µM)	relative viability (Axitinib + Vorinostat; first compound 0.005 µM)	relative viability (Axitinib + Vorinostat; first compound 0.01581 µM)	relative viability (Axitinib + Vorinostat; first compound 0.05 µM)	relative viability (Axitinib + Vorinostat; first compound 0.1581 µM)	relative viability (Axitinib + Vorinostat; first compound 0.5 µM)	relative viability (Bemcentinib + Dasatinib; first compound 0.04 µM)	relative viability (Bemcentinib + Dasatinib; first compound 0.1265 µM)	relative viability (Bemcentinib + Dasatinib; first compound 0.4 µM)	relative viability (Bemcentinib + Dasatinib; first compound 4 µM)	relative viability (Bemcentinib + Dasatinib; first compound 1.265 µM)	relative viability ([1]; first compound 31.62 µM)	relative viability ([2]; first compound 31.62 µM)
HCC-78	0.432	0.77	0.693	0.619	0.752	0.768	0.623	0.783	0.437	0.407	0.333	0.348	0.404	0.403	0.201	0.433	0.363	–	–	–
HCC-366	0.861	1.24	1.1	1.06	1.12	1.11	0.886	0.925	0.666	0.414	0.447	0.333	0.395	0.544	0.621	0.621	0.659	0.852	–	–
HCC-827	0.197	0.207	0.235	0.198	1.02	0.917	0.849	0.694	0.809	0.505	0.863	0.746	0.925	0.305	0.385	0.273	0.3	0.4	0.197	0.672
HOP-62	0.886	1.21	0.991	1.23	0.908	1.09	1.06	1.07	0.713	0.686	0.585	0.696	0.76	0.639	0.656	0.768	0.718	0.552	0.714	0.751
IA-LM	0.624	0.788	0.498	0.322	0.747	0.339	0.259	0.262	1.02	1.02	0.974	0.934	0.973	–	–	–	–	–	0.407	0.275
LC-2-ad	0.986	1.03	0.935	0.759	0.462	0.323	0.408	0.32	0.67	0.722	0.736	0.713	0.685	0.308	0.597	0.659	0.557	0.669	0.576	0.249
LCLC-97TM1	–	1.17	0.79	1.38	–	0.548	0.513	0.425	0.889	0.734	0.756	0.804	0.766	0.851	0.818	0.736	0.975	0.851	–	–
LCLC-103H	–	–	–	–	–	–	–	–	0.767	0.801	0.808	0.75	0.759	0.419	0.192	0.478	0.531	0.393	–	–
LK-2	0.893	1.18	0.969	1.47	0.862	1	0.749	0.997	0.343	0.292	0.209	0.301	0.232	0.248	0.246	0.31	0.349	0.27	–	0.534

Source: the supplement of paper PMC10307832
